The text below walks through data of patent publication US11420970B1 (NOVARTIS AG, priority 2019, dated 2022).

In this assay the target is NSD2 [1-1365] (Homo sapiens (Human), UniProt O96028). The experiment in a line: LC-MS/MS-based NSD2 enzymatic assay (SAH production). Type of assay: biochemical. Particulars: NSD2 biochemical activity, class symbols; read-out: NSD2 IC50. Here is the method: LC-MS/MS-Based NSD2 Enzymatic Assay
Sequence of NSD2 [1-1365] (O96028 whole entry): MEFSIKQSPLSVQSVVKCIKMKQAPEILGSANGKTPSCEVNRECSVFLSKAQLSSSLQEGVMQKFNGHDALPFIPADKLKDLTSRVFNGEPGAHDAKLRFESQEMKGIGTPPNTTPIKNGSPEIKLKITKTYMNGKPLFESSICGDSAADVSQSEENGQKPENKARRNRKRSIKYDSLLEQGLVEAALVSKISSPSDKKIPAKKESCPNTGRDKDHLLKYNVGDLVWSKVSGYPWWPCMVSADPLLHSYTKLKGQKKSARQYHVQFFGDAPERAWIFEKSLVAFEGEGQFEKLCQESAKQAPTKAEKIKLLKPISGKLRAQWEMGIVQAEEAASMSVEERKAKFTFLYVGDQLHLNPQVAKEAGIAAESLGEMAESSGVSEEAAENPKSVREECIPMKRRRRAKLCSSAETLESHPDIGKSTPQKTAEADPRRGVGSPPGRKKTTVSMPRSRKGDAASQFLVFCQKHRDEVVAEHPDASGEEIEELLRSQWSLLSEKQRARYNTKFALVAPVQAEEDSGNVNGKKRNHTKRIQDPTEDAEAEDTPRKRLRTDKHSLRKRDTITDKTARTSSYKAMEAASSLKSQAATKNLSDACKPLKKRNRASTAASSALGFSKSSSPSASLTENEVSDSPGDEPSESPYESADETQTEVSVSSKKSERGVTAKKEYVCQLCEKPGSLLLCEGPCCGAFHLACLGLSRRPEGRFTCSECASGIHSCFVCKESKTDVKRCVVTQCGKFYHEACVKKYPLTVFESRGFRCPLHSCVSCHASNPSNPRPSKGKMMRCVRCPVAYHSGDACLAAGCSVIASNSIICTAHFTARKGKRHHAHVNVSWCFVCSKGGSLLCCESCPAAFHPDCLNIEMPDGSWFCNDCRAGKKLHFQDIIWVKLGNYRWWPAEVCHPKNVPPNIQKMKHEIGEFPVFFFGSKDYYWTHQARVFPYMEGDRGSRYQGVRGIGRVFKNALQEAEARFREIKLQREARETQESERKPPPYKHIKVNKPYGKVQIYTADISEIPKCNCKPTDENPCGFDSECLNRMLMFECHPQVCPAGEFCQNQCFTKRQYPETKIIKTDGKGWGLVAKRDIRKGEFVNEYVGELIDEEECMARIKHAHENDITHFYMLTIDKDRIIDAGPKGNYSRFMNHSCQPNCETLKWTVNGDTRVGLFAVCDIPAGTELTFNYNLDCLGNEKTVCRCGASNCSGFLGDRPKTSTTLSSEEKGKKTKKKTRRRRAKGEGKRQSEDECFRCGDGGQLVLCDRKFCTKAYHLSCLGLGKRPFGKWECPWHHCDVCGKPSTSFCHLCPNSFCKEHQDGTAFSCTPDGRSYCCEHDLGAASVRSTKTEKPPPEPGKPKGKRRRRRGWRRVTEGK
This assay employed LC-MS/MS technology to monitor the SAH production from the NSD2 enzymatic reaction. The enzymatic reaction was performed in white proxiplate plus 384-well microplate (Perkin Elmer). The reaction mixture (10 μL) were composed of 8 nM NSD2 [1-1365], […] SAM (USB, 10601) and 400 nM nucleosome (purified from mouse liver) in reaction buffer (20 mM Tris-HCl, pH at 8.0, 0.01% Tween 20, 10 mM MgCl2, 50 mM NaCl, 1 mM DTT, 1 mM TCEP (pH7.5)). After 90 min incubation at room temperature, 3 μL quenching solution containing 2.5% TFA with 320 nM d4-SAH was added to stop the reaction.
For the inhibition assay, compound solutions were transferred into the wells by Mosquito™ (TTP LabTech). The inhibition assays were carried out by preincubating various concentrations of the inhibitor with 5 uL reaction mixture containing 16 nM NSD2 [1-1365] and 2 uM SAM (USB, 10601) in reaction buffer. After 20 min preincubation, 5 uL solution containing 800 nM nucleosome (purified from mouse liver) in reaction buffer was added to initiate the reaction. The reaction was stopped by 3 μL quenching solution containing 2.5% TFA with 320 nM d4-SAH after 90 min.
The SAH production from the enzymatic assays were monitored by LC-MS/MS on an API 4000 triple quadrupole mass spec with Turbolon Spray (Applied Biosystem) coupled with Prominenece UFLC(Shimazu). Liquid chromatography was performed on a Chromolith FastGradient HPLC column (RP-18e, 25-2 mm, from Merck) at a flow rate of 0.8 ml/min. The column was connected directly to the turbo ion electrospray operating in the positive-ion mode. Mobile phase A is 0.1% FA and 2% methanol in water and mobile phase B is 0.1% FA in ACN. Injection volume was 3 μl and the autosampler was kept at 4 degree. SAH and d4-SAH were simultaneously monitored. Data were acquired and processed by Analyst software.
To quantify the formed SAH, d4-SAH was added as internal standard (IS). A series of SAH (Sigma, A9384) solution at varying concentration (1-500 nM in reaction buffer) was mixed with quenching solution mentioned above. Then LC-MS/MS was carried out on API 4000 LC/MS/MS system to detect both SAH and d4-SAH. The plot of SAH peak area/IS peak area vs SAH concentration was used to generate the normalization factor of SAH. The SAH production from real enzymatic reaction was derived from the standard curve of SAH. The down-limit of our system for the detection of SAH is around 1-2 nM, and the linear range can reach up to 500 nM.
Usually IC50 stands for the concentration at which inhibition is half-maximal. Regarding `Nc1ncnc2c1ncn2Cc1cc(-c2ccc3c(c2)CCO3)ncc1N1CC[C@@H](F)[C@@H](N)C1` [Example 14, 9-((5-((3S,4R)-3-amino-4-fluoropiperidin-1-yl)-2-(2,3-dihydrobenzofuran-5-yl)pyridin-4-yl)methyl)-9H-purin-6-amine], the IC50 was in the range of 0.01 to 1 µM.
In the case of `COc1ccc(-c2cc(Cn3cnc4c(N)ncnc43)c(N3C[C@H](N)CC(F)(F)C3)cn2)cc1F` [Example 16, (R)-9-((5-(5-amino-3,3-difluoropiperidin-1-yl)-2-(3-fluoro-4-methoxyphenyl)pyridin-4-yl)methyl)-9H-purin-6-amine] it was 0.01 to 1 µM.
Turning to `N#CC1CCN(c2cnc(-c3ccc(F)c(F)c3)cc2Cn2cnc3c(N)ncnc32)CC1N` (stereo not drawn) [Example 18, 3-amino-1-(4-((6-amino-9H-purin-9-yl)methyl)-6-(3,4-difluorophenyl)pyridin-3-yl)piperidine-4-carbonitrile], the IC50 is greater than 1 µM.
Under `COC[C@@]1(N)CCCN(c2cnc(-c3ccc(F)c(Cl)c3)cc2Cn2cnc3c(N)ncnc32)C1` [Example 28, (R)-9-((5-(3-amino-3-(methoxymethyl)piperidin-1-yl)-2-(3-chloro-4-fluorophenyl)pyridin-4-yl)methyl)-9H-purin-6-amine] stands 0.001 to 0.01 µM.
Regarding `COc1ccc(-c2cc(Cn3cnc4c(N)ncnc43)c(N3CCC[C@](N)(COC4CC4)C3)cn2)cc1F` [Example 31, (R)-9-((5-(3-amino-3-(cyclopropoxymethyl)piperidin-1-yl)-2-(3-fluoro-4-methoxyphenyl)pyridin-4-yl)methyl)-9H-purin-6-amine], the IC50 lay in the range of 0.001 to 0.01 µM.
Regarding `COCCC1(N)CCCN(c2cnc(-c3ccc(F)c(F)c3)cc2Cn2cnc3c(N)ncnc32)C1` (stereo not drawn) [Example 60, 9-((5-(3-amino-3-(2-methoxyethyl)piperidin-1-yl)-2-(3,4-difluorophenyl)pyridin-4-yl)methyl)-9H-purin-6-amine], the half-inhibitory concentration (IC50) fell in the range of 0.01 to 1 µM.
As for `NC(=O)C[C@@]1(N)CCCN(c2cnc(-c3ccc(F)c(F)c3)cc2Cn2cnc3c(N)ncnc32)C1` [Example 62, (S)-2-(3-amino-1-(4-((6-amino-9H-purin-9-yl)methyl)-6-(3,4-difluorophenyl)pyridin-3-yl)piperidin-3-yl)acetamide], the concentration for half-maximal inhibition (IC50) lay in the range of 0.01 to 1 µM.
Take `CN(C)C(=O)CC1(N)CCCN(c2cnc(-c3ccc(F)c(F)c3)cc2Cn2cnc3c(N)ncc(Cl)c32)C1` (stereo not drawn) [Example 68, 2-(3-amino-1-(4-((4-amino-7-]: the IC50 was 0.01 to 1 µM.
`COC(=O)C[C@@]1(N)CCCN(c2cnc(-c3cccc(F)c3)cc2Cn2cnc3c(N)ncnc32)C1` [Example 73, methyl (S)-2-(3-amino-1-(4-((6-amino-9H-purin-9-yl)methyl)-6-(3-fluorophenyl)pyridin-3-yl)piperidin-3-yl)acetate]: the IC50 lay within 0.01 to 1 µM.
Turning to `Nc1ncnc2c1ncn2Cc1cc(-c2ccc(CNC(=O)CCl)cc2)ncc1N1CCCC(N)(CC(F)F)C1` (stereo not drawn) [Example 75, N-(4-(5-(3-amino-3-(2,2-difluoroethyl)piperidin-1-yl)-4-((6-amino-9H-purin-9-yl)methyl)pyridin-2-yl)benzyl)-2-chloroacetamide], the IC50 fell in the range of 0.01 to 1 µM.
For `N#CCC1(N)CCCN(c2cnc(-c3ccc(F)c(F)c3)cc2Cn2cnc3c(N)ncnc32)C1` (stereo not drawn) [Example 77, 2-(3-amino-1-(4-((6-amino-9H-purin-9-yl)methyl)-6-(3,4-difluorophenyl)pyridin-3-yl)piperidin-3-yl)acetonitrile], the IC50 is greater than 1 µM.
Take `Nc1ncnc2c1ncn2Cc1cc(-c2ccc(F)c(F)c2)ncc1N1CCC[C@](N)(C(=O)NC2CCOCC2)C1` [Example 82, (R)-3-amino-1-(4-((6-amino-9H-purin-9-yl)methyl)-6-(3,4-difluorophenyl)pyridin-3-yl)-N-(tetrahydro-2H-pyran-4-yl)piperidine-3-carboxamide]: the IC50 is 0.01 to 1 µM.
As to `Nc1ncnc2c1ncn2Cc1cc(-c2ccc(F)c(F)c2)ncc1N1CCC[C@](N)(C(=O)N2CCCC2)C1` [Example 84, (R)-(3-amino-1-(4-((6-amino-9H-purin-9-yl)methyl)-6-(3,4-difluorophenyl)pyridin-3-yl)piperidin-3-yl)(pyrrolidin-1-yl)methanone], the half-maximal inhibitory concentration (IC50) lay in the range of 0.01 to 1 µM.
Under `CC1CCCN1C(=O)C1(N)CCCN(c2cnc(-c3ccc(F)c(F)c3)cc2Cn2cnc3c(N)ncnc32)C1` (stereo not drawn) [Example 88, (3-amino-1-(4-((6-amino-9H-purin-9-yl)methyl)-6-(3,4-difluorophenyl)pyridin-3-yl)piperidin-3-yl)(2-methylpyrrolidin-1-yl)methanone] stands 0.01 to 1 µM; under `Nc1ncnc2c1ncn2Cc1cc(-c2ccc(F)c(F)c2)ncc1N1CCCC(N)(C(=O)C2CCCC2)C1` (stereo not drawn) [Example 100, (3-amino-1-(4-((6-amino-9H-purin-9-yl)methyl)-6-(3,4-difluorophenyl)pyridin-3-yl)piperidin-3-yl)(cyclopentyl)methanone], 0.001 to 0.01 µM.
For `Nc1ncnc2c1ncn2Cc1cc(-c2ccc(F)c(F)c2)ncc1N1CCCC(N)(C(=O)C2CCOC2)C1` (stereo not drawn) [Example 111, (3-amino-1-(4-((6-amino-9H-purin-9-yl)methyl)-6-(3,4-difluorophenyl)pyridin-3-yl)piperidin-3-yl)(tetrahydrofuran-3-yl)methanone], the half-maximal inhibitory concentration (IC50) was greater than 1 µM.
Under `CC1(C(=O)C2(N)CCCN(c3cnc(-c4ccc(F)c(F)c4)cc3Cn3cnc4c(N)ncnc43)C2)COC1` (stereo not drawn) [Example 112, (3-amino-1-(4-((6-amino-9H-purin-9-yl)methyl)-6-(3,4-difluorophenyl)pyridin-3-yl)piperidin-3-yl)(3-methyloxetan-3-yl)methanone] stands greater than 1 µM; under `COc1c(-c2ccc(F)c(F)c2)ncc(N2CCC[C@](N)([C@H](O)C(F)F)C2)c1Cn1cnc2c(N)ncnc21` [Example 118, (S)-1-((R)-3-amino-1-(4-((6-amino-9H-purin-9-yl)methyl)-6-(3,4-difluorophenyl)-5-methoxypyridin-3-yl)piperidin-3-yl)-2,2-difluoroethan-1-ol], 0.001 to 0.01 µM.
Take `Nc1ncnc2c1ncn2Cc1cc(-c2cc(F)c(C(F)F)cc2F)ncc1N1CCC[C@](N)([C@H](O)C(F)F)C1` [Example 120, (S)-1-((R)-3-amino-1-(4-((6-amino-9H-purin-9-yl)methyl)-6-(4-(difluoromethyl)-2,5-difluorophenyl)pyridin-3-yl)piperidin-3-yl)-2,2-difluoroethan-1-ol]: the IC50 is 0.001 to 0.01 µM.
In the case of `Cc1cc(C(F)F)c(F)cc1-c1cc(Cn2cnc3c(N)ncnc32)c(N2CCC[C@](N)([C@@H](O)C(F)F)C2)cn1` [Example 129, (R)-1-((R)-3-amino-1-(4-((6-amino-9H-purin-9-yl)methyl)-6-(4-(difluoromethyl)-5-fluoro-2-methylphenyl)pyridin-3-yl)piperidin-3-yl)-2,2-difluoroethan-1-ol], the IC50 lay in the range of 0.001 to 0.01 µM.
In the case of `COc1ccc(-c2ncc(N3CCC[C@](N)([C@H](O)C(F)F)C3)c(Cn3cnc4c(N)ncnc43)c2F)c(F)c1` [Example 135, (S)-1-((R)-3-amino-1-(4-((6-amino-9H-purin-9-yl)methyl)-5-fluoro-6-(2-fluoro-4-methoxyphenyl)pyridin-3-yl)piperidin-3-yl)-2,2-difluoroethan-1-ol] it was 0.01 to 1 µM; in that of `Nc1ncnc2c1ncn2Cc1cc(-c2ccc(C(F)F)cc2F)ncc1N1CCC[C@](N)([C@H](O)C(F)F)C1` [Example 137, (S)-1-((R)-3-amino-1-(4-((6-amino-9H-purin-9-yl)methyl)-6-(4-(difluoromethyl)-2-fluorophenyl)pyridin-3-yl)piperidin-3-yl)-2,2-difluoroethan-1-ol], 0.01 to 1 µM; in that of `Cc1cc(C(F)F)ccc1-c1cc(Cn2cnc3c(N)ncnc32)c(N2CCC[C@](N)([C@H](O)C(F)F)C2)cn1` [Example 140, (S)-1-((R)-3-amino-1-(4-((6-amino-9H-purin-9-yl)methyl)-6-(4-(difluoromethyl)-2-methylphenyl)pyridin-3-yl)piperidin-3-yl)-2,2-difluoroethan-1-ol], 0.01 to 1 µM.
As for `Nc1ncnc2c1ncn2Cc1c(N2CCC[C@](N)([C@H](O)C(F)F)C2)cnc(-c2ccc(F)cc2F)c1F` [Example 142, (S)-1-((R)-3-amino-1-(4-((6-amino-9H-purin-9-yl)methyl)-6-(2,4-difluorophenyl)-5-fluoropyridin-3-yl)piperidin-3-yl)-2,2-difluoroethan-1-ol], the half-maximal inhibitory concentration (IC50) lay in the range of 0.01 to 1 µM.
